Test results from US12016353B2, “Compositions and methods for aquaculturing” (The State of Israel, Ministry of Agriculture & Rural …, priority 2017, dated 2024).

Experiments:
Assay type in all cases: in vivo, Sparus aurata
PCNA = PCNA mRNA expression in sea bream proximal intestine (intestinal epithelial cell proliferation); conditions: 0.8% sodium butyrate diet for 9 days, 1.5 h after feeding, P<0.05, FIG. 6
Experimental: Fish having an average weight of 14.49±0.2 g (mean±SEM) were stocked in 15 tanks at a density of 30 fish tank^−1 with 5 replicate tanks (assigned as A-E) dietary treatment^−1. […]
(§1) Total RNA extraction from samples of the proximal intestine was carried out using BioTri reagent (Biolab, Israel) according to the manufacturer's instructions. For determining total RNA quality and concentration, 2 μl from each sample diluted with 18 μl of DEPC treated water (1:10) were loaded onto a 384 well microplate (Greiner Bio-One, Austria). In each sample the 260/280 ratio, 260/230 ratio and RNA concentration were obtained by plate reader and Gen5 software (Synergy HT, BioTek, USA). For each RNA extraction procedure, the integrity of the extracted RNA was evaluated by electrophoresis on 1.2% agarose gel stained with GelRed (Biotium, USA). […]
Specific real-time PCR primers (Table 6) were designed for amplifying the sea bream PepT1 (accession no. GU733710.1), PCNA (accession no. CX734891.1), CCK, Cdx1b and β-actin (accession no. AY362763.1) transcripts. Quantification of target gene transcripts of different treatments was achieved by PCR reaction mix (10 μl) containing SYBR Green dye (Quanta, Perfecta; SYBR Green FastMix, Low ROX; 95074-012), template cDNA and 500 nM of target specific primers in a quantitative PCR system (Applied Biosystems, 7500 Fast Real Time PCR System). […]

PepT1 [1] = experiment: Sustained effect of dietary butyrate on PepT1 mRNA expression in gilthead sea bream; conditions: for PepT1 transcription levels after butyrate feeding had ceased: 6 days after feeding butyrate ceased
Experimental: (§2) The experimental set up consisted of 200 L circular tanks in a flow through, filtered (10 μm) ambient seawater (40‰) system under a natural photoperiod of about 12 h/12 h (dark/light) where the water temperature ranged between 24.8-25.4° C. Experimental diets were offered to the fish twice a day (9:00; 14:00).
For determining whether (1) an effect of dietary butyrate on PepT1 transcriptional level is sustained after its supplementation has stopped and (2) to investigate an effect of dietary butyrate on Cdx1b expression. To this end another study was carried out. In this trial, fish having an average weight of 27.14±0.47 g (mean±SEM) were stocked at a density of 30 fish per tank with two replicate tanks per treatment. Fish were fed with the experimental diets (Table 4) including 1% taurine and 0, 0.8 and 1.6% of sodium butyrate for 8 days before its supplementation was stopped and all of the dietary groups started receiving the 0% sodium butyrate containing diet. Four fish from each tank (8 fish per dietary treatment) were sampled for their proximal intestine total RNA at days 9, 12 and 15 of the trial.
Fish were euthanized with an overdose of MS2-22 (Sigma Aldrich, USA) followed by a swift decapitation and then dissected for the removal of their gastrointestinal tract. For total RNA, the 1st segment of the proximal intestine (approx. 1 cm) was cut, immediately frozen and stored at −80° C. until RNA extraction. For histology, pieces of the proximal intestine (approx. 0.6 cm) were sampled, placed in 15 ml Falcon tubes containing 10% neutral buffered formalin (NBF) and stored at room temperature until processed. For immunohistochemistry (IHC-P) staining, pieces of proximal intestine (approx. 0.6 cm) were sampled, placed in 1.7 ml microcentrifuge tubes containing 4% paraformaldehyde (PFA) and stored at 4° C. for overnight fixation. After fixation, the intestinal samples were rinsed twice and washed three times (10 min each) with PBST 0.8% (PBS with 0.8% Triton x-100, Sigma Aldrich, USA). Following this, the samples were gradually dehydrated by one 5 min wash with 50% methanol in PBST followed by three more washings with 100% methanol and stored in 100% methanol at −20° C. until carrying out the staining procedure. After the removal of the gastrointestinal tract, the remaining carcasses of sampled fish were put into nylon bags and stored at −20° C. until proximate analysis. In order to calculate the gut index (GI), fish were weighed prior to the removal of their gastrointestinal tract. The intestines were separated from the stomach and pyloric caeca and then aligned, by forceps, against a ruler for measuring their length (mm). For each fish, gut index was calculated using the following formula: Gut index=100×Body weight (g)/(intestine length (mm))^3.
as §1

PepT1 [2] = experiment: PepT1 pattern of expression during the day in gilthead sea bream (10 day trial); conditions: diet with 0.8% sodium butyrate and 1% taurine versus control, FIG. 4
Experimental: as §2
Fish having an average weight of 14.49±0.2 g (mean±SEM) were stocked in […] at a density of 30 fish tank^−1 with 5 replicate tanks (assigned as A-E) dietary treatment^−1. During the 10 day trial, fish were offered the experimental diets (Table 4) with 1% taurine and with 0 and 0.8% of sodium butyrate (Sigma Aldrich, USA). […]
(§3) Fish were euthanized with an overdose of MS2-22 (Sigma Aldrich, USA) followed by a swift decapitation and then dissected for the removal of their gastrointestinal tract. […] For each fish, gut index was calculated using the following formula: Gut index=100×Body weight (g)/(intestine length (mm))^3.
as §1, with “For determining total RNA quality and concentration, 2 μl from each sample diluted with 18 μl of DEPC treated water (1:10) were loaded onto a 384 well microplate (Greiner Bio-One, Austria).” left out

[3] = test system: proximal intestine epithelium; experiment: Histological analysis of proximal intestine cross sections of sea bream (inner/outer perimeter ratio); conditions: 1.6% sodium butyrate, independent of dietary protein level, P<0.001, FIG. 9
Experimental: During the 13 week trial, fish were weighed approximately every two weeks. The data were used to calculate growth rates and to adjust the daily rations of feed. At the end of the trial, 6 fish from each tank were sampled for calculating gut index and extracting their proximal intestine total RNA. Two other fish were sampled for histology and body composition. All sampling procedures were performed as described.
as §3, with “tract. For total RNA, the 1st segment of the proximal intestine (approx. 1 cm) was cut, immediately frozen and stored at −80° C. until RNA extraction.” for “tract.”
Standard protocol for histological analysis was implemented (Grate et al., 2003). […] Intestinal cross sections were photographed under a stereo zoom microscope (Axio Zoom.V16, Zeiss, Germany) and the inner and outer perimeter (mm) of the sections were measured using ImageJ software (imagej(dot)nih(dot)gov/ij/). […] The calculated ratio (inner perimeter/outer perimeter) for each section was then averaged for each slide/sample and analyzed for differences between treatments.

CCCC(=O)[O-].[Na+] [sodium butyrate]
PCNA expression relative to control (PCNA): more than 2 fold | PepT1 transcription levels after butyrate feeding had ceased (PepT1 [1]; 0.8% butyrate for 8 days, FIG. 5B): remained higher than the control | PepT1 transcription (PepT1 [1]; 0.8% butyrate in diet for 8 days versus control, FIG. 5A): significantly (P<0.001) increased | PepT1 transcription levels after butyrate feeding had ceased (PepT1 [1]; 1.6% butyrate for 8 days, FIG. 5C): remained higher than the control | PepT1 transcription (PepT1 [1]; 1.6% butyrate in diet for 8 days versus control, FIG. 5A): significantly (P<0.001) increased | PepT1 transcription, increase over control (PepT1 [1]; 1.6% butyrate in diet for 8 days, FIG. 5A): more than 2 fold | PepT1 expression prior to the morning feeding (PepT1 [2]): significantly (P<0.01) higher PepT1 expression | expansion of the inner to outer perimeter ratio of the proximal intestine [3]: approximately 30%
